# From US20170073371A1, “ANTIMICROBIAL PEPTIDES” (ROBERT BOSCH GESELLSCHAFT FÜR MEDIZINISCHE FORSCHUNG MBH, priority 2012, published 2017)
# Where no end group is shown, it is not given here.
# Columns and labels:
# [1] = test system: Bifidobacterium adolescentis; test: Antimicrobial radial diffusion assay (inhibition zone diameter); assay type: cell-based; conditions: for antimicrobial activity (diameter of inhibition zone): FIG. 1, radial diffusion
# Method: (§1) The letters indicate the amino acids using the single-letter code. […] The diameter of the inhibition zones represents the antimicrobial activity; a diameter of 2.5 mm is the diameter of an empty punched well in an agar plate which contains only carrier fluid (negative control). The experiments were repeated at least three times, and the mean plus standard deviation is shown.
# (§2) Antimicrobial radial diffusion assays for anaerobic bacteria were carried out as described previously (see Schröder et al.: “Reduction of disulfide bonds unmasks potent antimicrobial activity of human beta-defensin 1”, Nature, 469: 419-423 (2011)). In brief, the bacteria were anaerobically cultured (Oxoid AnaeroGen”, England) for 24 hours at 37° C. on Columbia agar plates, then inoculated into liquid trypticase soy broth (TSB) medium and cultured again for 24 hours. The bacterial cultures were then washed and diluted to an optical density (OD620 nm)=0.1, of which 150 μl was used for the effectiveness assay. Incubation occurred under anaerobic conditions in 10 ml 10 mM sodium phosphate having a pH of 7.4 with 0.3 mg/ml TSB pwder and 1% (w/v) low-EEO agarose (agarose with very low EEO value)(Appli-Chem) with 0 or 2 mM dithiothreitol (DTT, Sigma Aldrich), with 1 μg synthetic, oxidized hBD-1 (Peptide Institute, Japan) or synthetic peptides, for three hours. An overcoating gel having 6% (w/v) TSB powder, 1% agarose, and 10 mM sodium phosphate buffer (pH 7.4 or 5.7), with or without DTT, was placed onto the plates. After incubation for 48 hours at 37° C. the diameters of the inhibition zones were measured. The experiments were repeated at least three times.
# [2] = test system: E. coli K12; test: Radial diffusion assay, D- versus L-amino acid octapeptide (FIG. 3a); assay type: cell-based, Escherichia coli
# Method: Antimicrobial radial diffusion assays for anaerobic bacteria were carried out as described previously (see Schröder et al.: “Reduction of disulfide bonds unmasks potent antimicrobial activity of human beta-defensin 1”, Nature, 469: 419-423 (2011)). In brief, the bacteria were anaerobically cultured (Oxoid AnaeroGen”, England) for 24 hours at 37° C. on Columbia agar plates, then inoculated into liquid trypticase soy broth (TSB) medium and cultured again for 24 hours. The bacterial cultures were then washed and diluted to an optical density (OD620 nm)=0.1, of which 150 μl was used for the effectiveness assay. Incubation occurred under anaerobic conditions in 10 ml 10 mM sodium phosphate having a pH of 7.4 with 0.3 mg/ml TSB pwder and 1% (w/v) low-EEO agarose (agarose with very low EEO value)(Appli-Chem) with 0 or 2 mM dithiothreitol (DTT, Sigma Aldrich), with 1 μg synthetic, oxidized hBD-1 (Peptide Institute, Japan) or synthetic peptides, for three hours. An overcoating gel having 6% (w/v) TSB powder, 1% agarose, and 10 mM sodium phosphate buffer (pH 7.4 or 5.7), with or without DTT, was placed onto the plates. After incubation for 48 hours at 37° C. the diameters of the inhibition zones were measured. The experiments were repeated at least three times. […]
# [3] = test system: Escherichia coli; test: Antimicrobial radial diffusion assay (inhibition zone diameter); assay type: cell-based; conditions: FIG. 1b, 1c
# Method: as §1, §2
# [4] = test system: (opportunistic) pathogenic microorganisms; test: Flow cytometric antimicrobial assay (membrane depolarization), all tested pathogens; assay type: cell-based; conditions: 50 μg/ml; E. coli, S. aureus, C. albicans, B. fragilis; FIG. 2
# Method: (§3) The following peptides were investigated: modified octapeptide (SEQ ID NO. 4), wild type octapeptide (SEQ ID NO. 1), alanine-mutated octapeptide (SEQ ID NO. 7), and a heptapeptide (SEQ ID NO. 8) (each 50 μg/ml) were tested in a flow cytometric antimicrobial effectiveness assay against Escherichia coli, Staphylococcus aureus, Candida albicans, and Bacteroides fragilis. The letters once again indicate the respective amino acids in the one-letter code. The experiments were repeated twice in double batches, and the mean plus standard deviation is shown;
# (§4) Flow cytometric antimicrobial assays with which the membrane depolarization of the bacteria and fungi were measured were carried out as previously described (see Nuding et al., “A flow cytometric assay to monitor antimicrobial activity of defensins and cationic tissue extracts,” Journal of Microbiological Methods, 65: 335-380 (2006)).
# (§5) In brief, 1.5×10^6 cells per ml were incubated in 1:6-diluted Schaedler medium at 37° C. with peptides at a final volume of 50 μl. The defensins were dissolved in 0.01% acetic acid and were added to the bacterial/fungal suspensions at the final concentrations indicated. Bacterial or fungal suspensions that had been incubated with solvent (0.01% acetic acid) served here as controls for viability. After 90 minutes the suspensions were incubated for 10 minutes with 1 mg/ml of the membrane-potential-sensitive dye DiBAC4(3) ([bis-(1,3-dibutylbarbiturate)trimethine oxanol]) (Invitrogen, USA). The suspensions were centrifuged, and sediments resuspended in […] phosphate-buffered saline. The percentage of depolarized fluorescing bacteria or fungi in the suspension was determined using a FACSCalibur flow cytometer (Becton-Dickinson, USA) utilizing Cell Quest software (Becton-Dickinson). The experiments were repeated twice, each in duplicate.
# [5] = test system: commensal bacteria of the human intestinal flora; test: Antimicrobial radial diffusion assay of human beta-defensins at pH 7.4 or 5.7, with or without DTT; assay type: cell-based
# Method: as §2
# In the present case hBD-1 and its antimicrobial activity have been further investigated. For this, the antimicrobial activity of the three human beta-defensins hBD-1, -2, and -3 with respect to commensal bacteria of the human intestinal flora were tested under standard conditions (pH 7.4) and slightly acidic conditions (pH 5.7); under both conditions, reducing conditions were also tested by adding 2 mM of the chemical reducing agent dithiothreitol (DTT) to the growth medium.
# [6] = test system: Bacteroides fragilis; test: Flow cytometric antimicrobial assay (membrane depolarization); assay type: cell-based; conditions: 50 μg/ml; FIG. 2
# Method: as §3, §4, §5
# [7] = test system: Candida albicans; test: as above; assay type: cell-based; conditions: 50 μg/ml; FIG. 2
# Method: as §3, §4, §5
# [8] = test system: Escherichia coli; test: as above; assay type: cell-based; conditions: 50 μg/ml; FIG. 2
# Method: as §3, §4, §5
# [9] = test system: Staphylococcus aureus; test: as above; assay type: cell-based; conditions: 50 μg/ml; FIG. 2
# Method: as §3, §4, §5
# [10] = Reversed-phase HPLC analysis of hydrophobicity; assay type: physicochemical; conditions: data not shown
# Method: For analysis by high performance liquid chromatography (HPLC), the octapeptides were mixed with 0.1% (v/v) trifluoracetic acid (TFA) and analyzed with an Agilent 1200 system (Agilent) and a Synergi reversed phase (RP) column (250×4.6 mm, 4 μm, Phenomenex, Germany).
# In further experiments a reversed-phase HPLC analysis was carried out in order to investigate the hydrophobicity of the tested peptides (data not shown).
# [11] = Schröder et al., Nature 469:419-423 (2011); cited from earlier work
Substance,antimicrobial activity (diameter of inhibition zone) [1],antimicrobial activity (diameter of inhibition zone) [3],effectiveness (depolarized bacteria or fungi) [4],further results
"RGKAKCCK (not fully specified (some residues); cysteine pairing not given here; also: termini modified in some versions, not given here)",,,,activity compared with the peptide made up of L-amino acids ([1]; FIG. 3b): elevated activity; activity compared with the peptide made up of L-amino acids [2]: weaker activity
alanine-mutated octapeptide: alanine-mutated octapeptide; both cysteines exchanged (RGKAKAAK) [reference compound],brought activity to a complete standstill,almost entirely shut down antimicrobial activity,only marginal in most cases,
"hBD-3: human beta-defensin, obtained from Peptide Institute Inc. (GIINTLQKYYCRVRGGRCAVLSCLPKEEQIGKCSTRGRKCCRRKK; ends and bridges not checked; cysteine pairing not given here; UniProt P81534 23-67, looked up)",,,,"antimicrobial activity compared with the other two defensins ([5]; in most cases, tested commensals): strongest activity"
"RGKAKCAK [Cys7 exchanged, octapeptide with Cys7 exchanged for alanine]",activity was greatly decreased,increased the antimicrobial activity,,
ac-RGKAKCCK-NH2 (Ac-RGKAKCCK-NH2; cysteine pairing not given here) [modified octapeptide],rose sharply,did not differ significantly by comparison with the wild type peptide,,activity (depolarized bacteria) [6]: but not with respect to Escherichia coli and Bacteroides fragilis; activity (depolarized fungi) [7]: outstanding activity; activity (depolarized bacteria) [8]: but not with respect to Escherichia coli and Bacteroides fragilis; activity (depolarized bacteria) [9]: outstanding activity; hydrophobicity (order of elution from RP column) [10]: highest hydrophobicity
"RGKAKACK [Cys6 exchanged, octapeptide with Cys6 exchanged for alanine]",activity was greatly decreased,increased the antimicrobial activity,,
"RGKAKCCK [wild type octapeptide, octapeptide of the eight terminal amino acids of the carboxy terminus of hBD-1]",greater antimicrobial activity than the previously tested heptapeptide,also had antimicrobial activity,only marginal in most cases,
"hBD-1: human beta-defensin 1, obtained from Peptide Institute Inc. (DHYNCVSSGGQCLYSACPIFTKIQGTCYRGKAKCCK; disulfide (positions not given here); UniProt P60022 33-68, looked up)",,,,"activation of antimicrobial activity by reduction ([5]; pH 5.7, 2 mM DTT, data not shown): activation was not observed; antimicrobial activity, effect of reduction ([5]; reducing conditions, 2 mM dithiothreitol (DTT) in growth medium, data not shown): became active by reduction; antimicrobial activity ([5]; standard conditions (pH 7.4), data not shown): largely inactive; antimicrobial activity under reducing conditions [11]: elevated antimicrobial activity"
wild type heptapeptide: heptapeptide that represents the seven terminal amino acids of hBD-1 (GKAKCCK) [reference compound],highest activity,,only marginal in most cases,
